Reference: patent US7989464B2, “mGluR1 antagonists as therapeutic agents” (Schering Corporation, priority 2004, dated 2011)

target: T1, hmGluR1 receptor (Homo sapiens, UniProt Q13255); assay: IC50 determination: intracellular calcium mobilization (FLIPR) upon Quisqualate stimulation in CHO cells stably expressing hmGluR1; type: cell-based; conditions: against Quisqualate 1 μM (EC80), FLIPR calcium mobilization, read-out: IC50 Class
T1 construct: expressed in transfected cells
In short: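 CHO cells stably expressing hmGluR1 were kept overnight in DMEM high glucose with GPT and 1 mM pyruvate, then loaded 2 h with Calcium 3 dye.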

T1 sequence (Q13255 19-1194): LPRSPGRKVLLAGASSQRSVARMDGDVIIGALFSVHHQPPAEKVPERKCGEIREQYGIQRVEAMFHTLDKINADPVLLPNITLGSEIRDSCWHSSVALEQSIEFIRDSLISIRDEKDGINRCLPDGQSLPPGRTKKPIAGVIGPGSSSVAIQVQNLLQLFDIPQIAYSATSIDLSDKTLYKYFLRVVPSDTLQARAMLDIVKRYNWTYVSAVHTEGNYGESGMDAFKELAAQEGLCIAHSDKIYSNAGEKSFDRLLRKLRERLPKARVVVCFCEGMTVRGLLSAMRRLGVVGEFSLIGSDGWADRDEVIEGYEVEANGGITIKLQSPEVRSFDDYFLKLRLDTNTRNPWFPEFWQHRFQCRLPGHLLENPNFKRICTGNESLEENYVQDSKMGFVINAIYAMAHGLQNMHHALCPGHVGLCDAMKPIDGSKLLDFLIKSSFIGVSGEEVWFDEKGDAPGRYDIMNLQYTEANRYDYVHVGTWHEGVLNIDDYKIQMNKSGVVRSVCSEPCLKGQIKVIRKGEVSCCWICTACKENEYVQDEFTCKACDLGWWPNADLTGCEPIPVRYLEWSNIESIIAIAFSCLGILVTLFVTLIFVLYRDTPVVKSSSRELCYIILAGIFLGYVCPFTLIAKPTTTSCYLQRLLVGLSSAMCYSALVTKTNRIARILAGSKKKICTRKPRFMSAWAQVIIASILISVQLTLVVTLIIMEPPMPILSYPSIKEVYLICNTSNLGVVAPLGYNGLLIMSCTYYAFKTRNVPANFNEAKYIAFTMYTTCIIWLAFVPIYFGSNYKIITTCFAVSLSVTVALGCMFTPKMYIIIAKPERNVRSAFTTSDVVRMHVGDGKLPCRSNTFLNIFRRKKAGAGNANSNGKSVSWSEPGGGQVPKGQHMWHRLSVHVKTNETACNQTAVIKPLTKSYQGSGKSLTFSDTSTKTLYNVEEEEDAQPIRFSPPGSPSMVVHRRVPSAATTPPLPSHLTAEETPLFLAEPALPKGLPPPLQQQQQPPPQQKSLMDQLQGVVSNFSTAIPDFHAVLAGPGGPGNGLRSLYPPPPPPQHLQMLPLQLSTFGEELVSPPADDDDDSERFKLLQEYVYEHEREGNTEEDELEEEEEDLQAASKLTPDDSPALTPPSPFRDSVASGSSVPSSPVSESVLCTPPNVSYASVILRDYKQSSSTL

| SMILES | IC50 [nM] |
| --- | --- |
| CCOC(=O)c1cnc2sc3c(=O)n(-c4ccc(OC)cc4)cnc3c2c1 [144B] | > 1000 |
| CCOC(=O)c1cc2c(nc1C(F)(F)F)sc1c(=O)n(-c3ccc(C)cc3)cnc12 [144C] | > 1000 |
| CCOc1cnnc2sc3c(=O)n(-c4ccc(C)cc4)cnc3c12 [161A] | > 1000 |
| COc1ccnc2sc3c(=O)n(-c4ccc5c(c4)OCCO5)cnc3c12 [161B] | > 1000 |
| COc1ccnc2sc3c(=O)n(-c4ccncc4)cnc3c12 [161C] | > 1000 |
| Cc1ccc(-n2cnc3c(sc4cnnc(NC5CC5)c43)c2=O)cc1 [167A] | 150 to 1000 |
| Cc1ccc(-n2cnc3c(sc4cnnc(N(C)C)c43)c2=O)cc1 [167B] | 50 to 150 |
| C=CCNc1nncc2sc3c(=O)n(-c4ccc(C)cc4)cnc3c12 [167C] | 150 to 1000 |
| COCCNc1nncc2sc3c(=O)n(-c4ccc(C)cc4)cnc3c12 [167D] | > 1000 |
| C#CCOc1nncc2sc3c(=O)n(-c4ccc(C)cc4)cnc3c12 [167E] | > 1000 |
| Cc1ccc(-n2cnc3c(sc4cnnc(NCCCO)c43)c2=O)cc1 [167F] | > 1000 |
| Cc1ccc(-n2cnc3c(sc4cnnc(NCC(F)(F)F)c43)c2=O)cc1 [167G] | > 1000 |
| CNc1nncc2sc3c(=O)n(-c4ccc(C)cc4)cnc3c12 [167H] | 150 to 1000 |
| CCNc1nncc2sc3c(=O)n(-c4ccc(C)cc4)cnc3c12 [167I] | 150 to 1000 |
| C#CCNc1nncc2sc3c(=O)n(-c4ccc(C)cc4)cnc3c12 [167J] | 50 to 150 |
| Cc1ccc(-n2cnc3c(sc4nccc(CN(C)C)c43)c2=O)cc1 [169A] | > 1000 |
| Cc1ccc(-n2cnc3c(sc4nccc(CN(CC5CC5)CC5CC5)c43)c2=O)cc1 [169B] | > 1000 |
| Cc1ccc(-n2cnc3c(sc4nc(O)cc(N(C)C)c43)c2=O)cc1 [172A] | < 50 |
| CNc1cc(O)nc2sc3c(=O)n(-c4ccc(C)cc4)cnc3c12 [172B] | < 50 |
| Cc1ccc(-n2cnc3c(sc4ncc(Br)c(N)c43)c2=O)cc1 [173A] | < 50 |

| SMILES | IC50 [nM] |
| --- | --- |
| COc1ccc(-n2cnc3c(sc4ncc(Br)c(N)c43)c2=O)cc1 [173B] | < 50 |
| C=CCc1ccnc2sc3c(=O)n(-c4ccc(Cl)cc4)cnc3c12 [178A] | 50 to 150 |
| C=CCc1cnc2sc3c(=O)n(-c4ccc(Cl)cc4)cnc3c2c1N [178B] | < 50 |
| C=C(OCC)c1ccnc2sc3c(=O)n(-c4ccc(Cl)cc4)cnc3c12 [183A] | 150 to 1000 |
| O=c1c2sc3ncccc3c2ncn1-c1ccc(Cl)cc1 [183B] | 150 to 1000 |
| COc1ccc(Nc2ncnc3sc4c(=O)n(-c5ccc(OC)cc5)cnc4c23)cc1 [190B] | 50 to 150 |
| O=c1c2sc3nccc(Nc4ccccc4)c3c2ncn1-c1ccc(Cl)cc1 [190C] | 150 to 1000 |
| COc1ccc(-n2cnc3c(sc4ncnc(Nc5nccs5)c43)c2=O)cc1 [190D] | 150 to 1000 |
| COc1ccc(-n2cnc3c(sc4ncnc(Nc5ccc(Cl)cc5)c43)c2=O)cc1 [190E] | 150 to 1000 |
| COc1ccc(-n2cnc3c(sc4ncnc(Nc5cccc(C#N)c5)c43)c2=O)cc1 [190I] | 150 to 1000 |
| COc1ccc(-n2cnc3c(sc4ncnc(Nc5ccccn5)c43)c2=O)cc1 [190K] | 150 to 1000 |
| COc1ccc(-n2cnc3c(sc4ncnc(Nc5ccccc5Cl)c43)c2=O)cc1 [190N] | > 1000 |
| Cc1ccc(-n2cnc3c(sc4ncc(C(=O)N(C)C)cc43)c2=O)cc1 [205A] | > 1000 |
| Cc1ccc(-n2cnc3c(sc4ncc(C(=O)N5CCNCC5)cc43)c2=O)cc1 [205B] | > 1000 |
| Cc1ccc(-n2cnc3c(sc4ncc(C(N)=O)cc43)c2=O)cc1 [205C] | 150 to 1000 |
| Cc1ccc(-n2cnc3c(sc4cnnc(Cl)c43)c2=O)cc1 [compound 166] | > 1000 |
| Cc1ccc(-n2cnc3c(sc4ncc(Br)c(Cl)c43)c2=O)cc1 [compound 171] | > 1000 |
| Nc1c([N+](=O)[O-])cnc2sc3c(=O)n(C4CCCCC4)cnc3c12 [compound 174] | 150 to 1000 |
| Cc1ccc(-n2cnc3c(sc4ncc(I)c(N)c43)c2=O)cc1 [compound 175] | < 50 |

same assay, conditions: against Quisqualate 1 μM (EC80), FLIPR calcium mobilization, read-out: mGluR1 IC50

| SMILES | IC50 [nM] |
| --- | --- |
| C=CCc1cnc2sc3c(=O)n(-c4ccc(Cl)cc4)cnc3c2c1N [178B] | 1.46 |
| Cc1ccc(-n2cnc3c(sc4ncc(I)c(N)c43)c2=O)cc1 [compound 175] | 0.76 |

same assay, conditions: against Quisqualate 1 μM (EC80), class symbols, read-out: mGIuR 1 IC50

| SMILES | IC50 [nM] |
| --- | --- |
| Cc1ccc(-n2cnc3c(sc4ncc(N)cc43)c2=O)cc1 [147A] | 150 to 1000 |
| CN(C)c1ccnc2sc3c(=O)n(-c4ccc(Cl)cc4)cnc3c12 [P-2] | < 50 |
| COc1cccc(-n2cnc3c(sc4nc(N5CCOCC5)c5c(c43)CC(C)(C)OC5)c2=O)c1 [P-4] | 150 to 1000 |
| COc1ccccc1-n1cnc2c(sc3nc(N4CCOCC4)c4c(c32)CC(C)(C)OC4)c1=O [P-5] | 150 to 1000 |
| COc1ccc(NC(=O)CSc2nc3c(sc4nc(C)cc(C)c43)c(=O)n2-c2ccc(Cl)cc2)cc1 [P-6] | 150 to 1000 |
| CCOC(=O)CSc1nc2c(sc3nc(C)cc(C)c32)c(=O)n1-c1ccc(Cl)cc1 [P-7] | 150 to 1000 |
| CC(=O)c1c(C)nc2sc3c(=O)n(-c4ccc(C)cc4)cnc3c2c1-c1ccc(Cl)cc1 [P-8] | 150 to 1000 |
| CC(=O)c1c(C)nc2sc3c(=O)n(-c4ccccc4)cnc3c2c1-c1ccc(Cl)cc1 [P-9] | 150 to 1000 |
| COc1ccc(-c2c(C(C)=O)c(C)nc3sc4c(=O)n(-c5ccc(C)cc5)cnc4c23)cc1 [P-10] | 150 to 1000 |
| COc1ccc(-c2c(C(C)=O)c(C)nc3sc4c(=O)n(-c5ccc(Cl)cc5)cnc4c23)cc1 [P-11] | 150 to 1000 |
| COc1ccc(-c2c(C(C)=O)c(C)nc3sc4c(=O)n(-c5ccccc5)cnc4c23)cc1 [P-12] | 150 to 1000 |
| Cc1ccc(-n2cnc3c(sc4nc(-c5cccs5)cc(C(F)(F)F)c43)c2=O)cc1 [P-13] | 150 to 1000 |
| O=c1c2sc3nc(-c4cccs4)cc(C(F)(F)F)c3c2ncn1-c1ccccc1 [P-14] | 150 to 1000 |
| COc1ccc(-n2cnc3c(sc4nc(C)cc(C)c43)c2=O)cc1 [P-15] | 150 to 1000 |
| O=c1c2sc3ncccc3c2ncn1-c1ccccc1 [compound 11] | > 1000 |
| O=c1c2sc3nccc(Cl)c3c2ncn1-c1ccccc1 [compound 13] | 150 to 1000 |
| O=c1c2sc3nc(Cl)ccc3c2ncn1-c1ccccc1 [compound 14] | > 1000 |
| CN(C)c1ccnc2sc3c(=O)n(C4CCC5(CC4)OCCO5)cnc3c12 [compound 19] | 150 to 1000 |
| COc1ccc(-n2cnc3c(sc4nccnc43)c2=O)cc1 [compound 40] | > 1000 |
| CN(C)c1c(Cl)cnc2sc3c(=O)n(C4CCCCC4)cnc3c12 [compound 41] | 50 to 150 |
| CNc1c(Cl)cnc2sc3c(=O)n(C4CCCCC4)cnc3c12 [compound 42] | 50 to 150 |
| CN(C)c1c(Br)cnc2sc3c(=O)n(C4CCCCC4)cnc3c12 [compound 43] | 150 to 1000 |
| CNc1c(Br)cnc2sc3c(=O)n(C4CCCCC4)cnc3c12 [compound 44] | < 50 |
| CN(C)c1c(C=O)cnc2sc3c(=O)n(C4CCCCC4)cnc3c12 [compound 45] | < 50 |
| CN(C)c1c(C#N)cnc2sc3c(=O)n(C4CCCCC4)cnc3c12 [compound 46] | < 50 |
| CNc1c(C#N)cnc2sc3c(=O)n(C4CCCCC4)cnc3c12 [compound 48] | 150 to 1000 |

| SMILES | IC50 [nM] |
| --- | --- |
| CN(C)c1c(C(N)=O)cnc2sc3c(=O)n(C4CCCCC4)cnc3c12 [compound 49] | > 1000 |
| CCNc1c(C#N)cnc2sc3c(=O)n(C4CCCCC4)cnc3c12 [compound 50] | 150 to 1000 |
| CN(C)c1c([N+](=O)[O-])cnc2sc3c(=O)n(C4CCCCC4)cnc3c12 [compound 51] | < 50 |
| CNc1c([N+](=O)[O-])cnc2sc3c(=O)n(C4CCCCC4)cnc3c12 [compound 52] | 150 to 1000 |
| CN(C)c1c[n+]([O-])cc2sc3c(=O)n(-c4ccc(Cl)cc4)cnc3c12 [compound 53] | > 1000 |
| CN(C)c1c(Cl)ncc2sc3c(=O)n(-c4ccc(Cl)cc4)cnc3c12 [compound 54] | 150 to 1000 |
| CN(C)c1c(C#N)ncc2sc3c(=O)n(-c4ccc(Cl)cc4)cnc3c12 [compound 55] | 50 to 150 |
| COc1cc(N(C)C)c2c(n1)sc1c(=O)n(-c3ccc(C)cc3)cnc12 [compound 58] | < 50 |
| CC(=O)N1CCN(c2ccnc3sc4c(=O)n(C5CCCCC5)cnc4c23)CC1 [compound 62] | > 1000 |
| CS(=O)(=O)N1CCN(c2ccnc3sc4c(=O)n(C5CCCCC5)cnc4c23)CC1 [compound 63] | 150 to 1000 |
| CCN(CC)C(=O)N1CCN(c2ccnc3sc4c(=O)n(C5CCCCC5)cnc4c23)CC1 [compound 64] | > 1000 |
| Cc1ccc(-n2cnc3c(sc4nccc(C(N)=O)c43)c2=O)cc1 [compound 76] | > 1000 |
| Cc1ccc(-n2cnc3c(sc4nccc(C(=O)O)c43)c2=O)cc1 [compound 77] | > 1000 |
| COc1cc(Cl)nc2sc3c(=O)n(C4CCCCC4)cnc3c12 [compound 78] | > 1000 |
| COc1cc(O)nc2sc3c(=O)n(C4CCCCC4)cnc3c12 [compound 80] | > 1000 |
| CN(C)c1cc(Cl)nc2sc3c(=O)n(C4CCCCC4)cnc3c12 [compound 83] | 50 to 150 |
| CN(C)c1cc(C#N)nc2sc3c(=O)n(C4CCCCC4)cnc3c12 [compound 84] | 50 to 150 |
| CN(C)c1cc(N2CCCC2)nc2sc3c(=O)n(C4CCCCC4)cnc3c12 [compound 85] | > 1000 |
| CN(C)c1ccc(F)c2sc3c(=O)n(C4CCCCC4)cnc3c12 [compound 104] | > 1000 |
| CN(C)c1ccc(C#N)c2sc3c(=O)n(C4CCCCC4)cnc3c12 [compound 105] | > 1000 |
| C=Cc1ccc(-n2cnc3c(sc4nccc(N(C)C)c43)c2=O)cc1 [compound 136] | < 50 |
| CC(=O)Oc1ccc(-n2cnc3c(sc4nccc(N(C)C)c43)c2=O)cc1 [compound 138] | < 50 |
| COc1ccc(-n2cnc3c(sc4ncc(Br)c(N(C)C)c43)c2=O)cc1Br [compound 149] | > 1000 |
| COc1ccc(-n2cnc3c(sc4nccc(Br)c43)c2=O)cc1 [compound 150] | 150 to 1000 |
| COc1ccc(-n2cnc3c(sc4ncc(Br)c(N(C)C)c43)c2=O)cc1 [compound 151] | < 50 |
| CNc1c(Br)cnc2sc3c(=O)n(-c4ccc(OC)cc4)cnc3c12 [compound 152] | < 50 |
